From US20220186188A1, “Method for Obtaining Pancreatic Progenitor Cells and Pancreatic Islet Beta Cells By Means of Differentiation of Human Pluripotent Stem Cells” (Asia Regenerative Medicine, Ltd., priority 2019, published 2022)

Columns and labels:
[1] = test system: pancreatic progenitor cells differentiated from human embryonic stem cells; test: Flow cytometry detection of PDX1 in the pancreatic progenitor cell stage (human embryonic stem cells); format: cell-based; details: 2 μM inhibitor in pancreatic progenitor cell medium, 5 days, compared with control group without WNT inhibitor
Protocol: a pancreatic progenitor cell medium was prepared, the medium in step 1) was replaced with the pancreatic progenitor cell medium, and the cells were cultured in a carbon dioxide incubator at 37 degrees Celsius for 5 days, during which the medium was replaced every day, wherein the composition of the pancreatic progenitor cell medium was: with an MCDB131 medium as a basic medium, and the following components at the working concentrations were further included: 0.5% of bovine serum albumin (BSA), 1.5 g/L of sodium bicarbonate, 1×glutamine (GlutaMAX), 10 mM glucose, […], 1×insulin-transferrin-selenium-ethanolamine additive (ITS-X), 50 ng/ml of fibroblast growth factor 7 (KGF), 0.5 μM SANT1 (with smo as an inhibitor target), 100 nM retinoic acid (TTNPB), 500 nM phorbol 12,13-dibutyrate (PDBu), 2 μM ALK inhibitor (K02288), and 2 μM WNT signaling pathway inhibitor XAV-939 (not added in a control group), with the concentrations all being final concentrations. […]

[2] = test system: pancreatic progenitor cells and pancreatic islet β cells differentiated from human induced pluripotent stem cells; test: Immunofluorescence detection of PDX1 and PDX1/INS proteins (human induced pluripotent stem cells); format: cell-based
From the text: […]

[3] = 2 μM inhibitor in pancreatic progenitor cell stage

## Oc1nc(-c2ccc(C(F)(F)F)cc2)nc2c1CSCC2 [XAV-939]
[1]
  PDX1-positive pancreatic progenitor cells (flow cytometry): significantly increased
[2]; 2 μM inhibitor added in pancreatic progenitor cell stage, immunofluorescence
  number of insulin INS-positive and PDX1-co-stained pancreatic islet β cells in the mature pancreatic islet β cell stage: significantly increased
[2]; [3]
  PDX1-positive pancreatic progenitor cells (immunofluorescence): significantly increased
  cell growth (total cell number by DAPI): did not affect the cell growth
